Measured values taken from US20230118795A1, “ARYL OR HETEROARYL PYRIDONE OR PYRIMIDINE DERIVATIVE, PREPARATION METHOD AND USE THEREOF” (SUZHOU ZELGEN BIOPHARMACEUTICALS CO., LTD., priority 2020, published 2023).

These molecules were tested on NCI-H358 (KRAS^G12C mutation) cell (assay: Cell assay of antiproliferative activity against NCI-H358 cell (Celltiter-Glo, 5 days)). Settings: 5 days incubation.
Type: cell-based
Protocol: Cell Assay of Antiproliferative Activity of Compounds Against NCI-H358 (KRAS^G12C Mutation) Cell.
40 μL phosphate buffer was added to the outer wells of the 384 microplate, and 40 μL cell suspension to be tested was added to the other wells. Then the microplate was incubated in a carbon dioxide incubator overnight.
The compounds to be tested were gradiently diluted, each compound was performed 10 concentration gradients (diluted from 50 μM to 0.003 μM) and added 100 nL to the corresponding wells in the microplate. After addition, 40 μl of phosphate buffer was added to each well in rows A and P and columns 1 and 24, and then the microplate was incubated in a carbon dioxide incubator for 5 days.
20 μL of Promega Celltiter-Glo reagent was added to each well of the microplate, and then the luminescence signal was stabilized by oscillating at room temperature for 10 min. Then PekinElmer Envision multi-label analyzer was used to read.
Finally, GraphPad Prism software was used to calculate the IC50 value of the compound and the fitting curve was drawn.
Anti-proliferative activity of the compounds of the present invention against NCI-H358 (KRAS^G12C mutation) cell was shown in Table 1.
Molecule `C=CC(=O)N1CCN(c2nc(=O)n(-c3ccccc3S(C)(=O)=O)c3nc(-c4c(O)cccc4F)c(F)cc23)CC1CC#N` (centres unmarked) [Example 56, 2-(1-acryloyl-4-(6-fluoro-7-(2-fluoro-6-hydroxyphenyl)-1-(2-(methylsulfonyl)phenyl)-2-oxo-1,2-dihydropyridino [2,3-d]pyrimidin-4-yl)piperazin-2-yl) acetonitrile] has an IC50 of 8000 nM.
Work on `C=CC(=O)N1CCN(c2nc(=O)n(-c3c(C4CC4)cccc3S(C)(=O)=O)c3nc(-c4c(O)cccc4F)c(F)cc23)[C@@H](C)C1` (single isomer, unassigned) [Example 6A] yielded an IC50 of 200 nM.
`C=CC(=O)N1CCN(c2nc(=O)n(-c3cccnc3S(C)(=O)=O)c3nc(-c4c(O)cccc4F)c(F)cc23)[C@@H](C)C1` [Example 54, 4-((S)-4-acryloyl-2-methylpiperazin-1-yl)-6-fluoro-7-(2-fluoro-6-hydroxyphenyl)-1-(2-(methylsulfonyl)pyridin-3-yl) pyridino [2,3-d] pyrimidin-2(1H)-one] showed an IC50 of 2500 nM.
`C=CC(=O)N1CCN(c2nc(=O)n(-c3c(C(C)C)cccc3S(C)(=O)=O)c3nc(-c4c(F)cccc4OC(C)=O)c(F)cc23)[C@@H](C)C1` (single isomer, unassigned) [Example 31B] was tested, and the IC50 was 6 nM.
In the case of `C=CC(=O)N1CCN(c2nc(=O)n(-c3c(CC)cccc3S(C)(=O)=O)c3nc(-c4c(O)cccc4F)c(F)cc23)[C@@H](C)C1` [Example 5A], the IC50 is reported as 230 nM.
With `C=CC(=O)N1CCN(c2nc(=O)n(-c3c(C)cccc3S(C)(=O)=O)c3nc(-c4c(O)cccc4F)c(F)cc23)[C@@H](C)C1` (single isomer, unassigned) [Example 53B] the IC50 was 66 nM.
Work on `C=CC(=O)N1CCN(c2nc(=O)n(-c3c(C(C)C)cccc3S(C)(=O)=O)c3nc(-c4ccccc4Cl)c(F)cc23)[C@@H](C)C1` (single isomer, unassigned) [Example 30A] yielded an IC50 of 740 nM.
`C=CC(=O)N1CCN(c2nc(=O)n(-c3cccnc3S(C)(=O)=O)c3nc(-c4c(O)cccc4F)c(F)cc23)CC1CC#N` (centres unmarked) [Example 92, 2-(1-acryloyl-4-(6-fluoro-7-(2-fluoro-6-hydroxyphenyl)-1-(2-(methylsulfonyl)pyridin-3-yl)-2-oxo-1,2-dihydropyridino [2,3-d]pyrimidin-4-yl)piperazin-2-yl) acetonitrile] was tested, and the IC50 was greater than 10000 nM.
In the case of `C=CC(=O)N1CCN(c2nc(=O)n(-c3c(C)cccc3S(C)(=O)=O)c3nc(-c4c(O)cccc4F)c(F)cc23)[C@@H](C)C1` (single isomer, unassigned) [Example 87A], the IC50 is reported as less than 30 nM.
For `C=CC(=O)N1CCN(c2nc(=O)n(-c3c(C(C)C)cccc3S(C)(=O)=O)c3nc(-c4c(F)cccc4OC(C)=O)c(F)cc23)[C@@H](C)C1` [Example 31, 2-(4-((S))-4-acryloyl-2-methylpiperazin-1-yl)-6-fluoro-1-(2-isopropyl-6-(methylsulfonyl)phenyl)-2-oxo-1,2-dihydropyridino[2,3-d]pyrimidin-7-yl)-3-fluorophenyl acetate], the IC50 was 8 nM.
`C=CC(=O)N1CCN(c2nc(=O)n(-c3c(C(C)C)cccc3S(C)(=O)=O)c3nc(-c4c(F)cccc4OC(C)=O)c(F)cc23)[C@@H](C)C1` (single isomer, unassigned) [Example 31A] was tested, and the IC50 was 300 nM.
`C=CC(=O)N1CCN(c2nc(=O)n(-c3c(C4CCC4)cccc3S(C)(=O)=O)c3nc(-c4c(O)cccc4F)c(F)cc23)[C@@H](C)C1` (single isomer, unassigned) [Example 25A] gave an IC50 of 350 nM.

Same assay, conditions: Homo sapiens, NCI-H358, 120 h, 5 days incubation
In the case of `C=CC(=O)N1CCN(c2nc(=O)n(-c3c(C(C)C)ccnc3S(C)(=O)=O)c3nc(-c4c(F)cccc4Cl)c(F)cc23)[C@@H](C)C1` [Example 28, 4-((S)-4-acryloyl-2-methylpiperazin-1-yl)-7-(2-chloro-6-fluorophenyl)-6-fluoro-1-(4-isopropyl-2-(methylsulfonyl)pyridin-3-yl) pyridino[2,3-d] pyrimidin-2(1H)-one], the IC50 is reported as 26 nM.
In the case of `C=CC(=O)N1CCN(c2nc(=O)n(-c3c(C(C)C)cccc3S(C)(=O)=O)c3nc(-c4ccc[nH]c4=O)c(F)cc23)[C@@H](C)C1` [Example 71, (S)-4-(4-acryloyl-2-methylpiperazin-1-yl)-6-fluoro-1-(2-isopropyl-6-(methylsulfonyl)phenyl)-7-(2-oxo-1,2-dihydropyridin-3-yl) pyridino[2,3-d] pyrimidin-2 (1H)-one], the IC50 is reported as greater than 10000 nM.
Work on `C=CC(=O)N1CCN(c2nc(=O)n(-c3c(C)cccc3S(=O)(=O)N(C)C)c3nc(-c4c(O)cccc4F)c(F)cc23)[C@@H](C)C1` [Example 14] yielded an IC50 of 360 nM.
`C=CC(=O)N1CCN(c2nc(=O)n(-c3c(C(C)C)ccnc3S(C)(=O)=O)c3nc(-c4c(O)cccc4Cl)c(F)cc23)[C@@H](C)C1` [Example 27, 4-((S)-4-acryloyl-2-methylpiperazin-1-yl)-7-(2-chloro-6-hydroxyphenyl)-6-fluoro-1-(4-isopropyl-2-(methylsulfonyl)pyridin-3-yl) pyridino[2,3-d] pyrimidin-2(1H)-one] showed an IC50 of 30 nM.
Work on `C=CC(=O)N1C[C@H](C)N(c2nc(=O)n(-c3c(C4CCC4)cccc3S(C)(=O)=O)c3nc(-c4c(O)cccc4F)c(F)cc23)C[C@H]1C` [Example 63A] yielded an IC50 of 370 nM.
`C=CC(=O)N1CCN(c2nc(=O)n(-c3ccccc3S(C)(=O)=O)c3nc(-c4c(O)cccc4F)c(F)cc23)C(CC#N)C1` (centres unmarked) [Example 60, 2-(4-acryloyl-1-(6-fluoro-7-(2-fluoro-6-hydroxyphenyl)-1-(2-(methylsulfonyl)phenyl)-2-oxo-1,2-dihydropyridino [2,3-d]pyrimidin-4-yl)piperazin-2-yl) acetonitrile] was tested, and the IC50 was greater than 10000 nM.
`C=CC(=O)N1CCN(c2nc(=O)n(-c3c(C(C)C)ccnc3S(C)(=O)=O)c3nc(-c4cccc(F)c4Cl)c(F)cc23)[C@@H](C)C1` [Example 26, (S)-4-(4-acryloyl-2-methylpiperazin-1-yl)-7-(2-chloro-3-fluorophenyl)-6-fluoro-1-(4-isopropyl-2-(methylsulfonyl)pyridin-3-yl) pyridino[2,3-d] pyrimidin-2(1H)-one] showed an IC50 of 18 nM.
For `C=CC(=O)N1CCN(c2nc(=O)n(-c3c(C(C)C)cccc3S(C)(=O)=O)c3nc(-c4c(Cl)cccc4C#N)c(F)cc23)[C@@H](C)C1` [Example 67], the IC50 was greater than 10000 nM.
Work on `C=CC(=O)N1CCN(c2nc(=O)n(-c3c(C4CC4)cccc3S(C)(=O)=O)c3nc(-c4c(O)cccc4F)c(F)cc23)[C@@H](C)C1` [Example 6, 4-((S)-4-acryloyl-2-methylpiperazin-1-yl)-1-(2-cyclopropyl-6-(methylsulfonyl)phenyl)-6-fluoro-7-(2-fluoro-6-hydroxyphenyl) pyridino [2,3-d] pyrimidin-2(1H)-one] yielded an IC50 of 28 nM.
`C=CC(=O)N1CCN(c2nc(=O)n(-c3c(C)cccc3S(C)(=O)=O)c3nc(-c4c(F)cccc4Cl)c(F)cc23)[C@@H](C)C1` [Example 59, 4-((S)-4-acryloyl-2-methylpiperazin-1-yl)-7-(2-chloro-6-fluorophenyl)-6-fluoro-1-(2-methyl-6-(methylsulfonyl)phenyl) pyridino [2,3-d] pyrimidin-2(1H)-one] was tested, and the IC50 was 200 nM.
For `C=CC(=O)N1CCN(c2nc(=O)n(-c3cnccc3S(C)(=O)=O)c3nc(-c4c(O)cccc4F)c(F)cc23)[C@@H](C)C1` [Example 55], the IC50 was 5300 nM.
